Target: T1, HIV-1 Protease (Human immunodeficiency virus type 1 group M subtype B, UniProt P04585)
T1 construct: effect on HIV-1 Protease
Test: assay of selected molecules for activity (effect on HIV-1 Protease)
Assay type: biochemical
Details: various concentrations (between 10 and 1000 micro-molar)
Experimental: A set of molecules including the triangle measures were selected and physically assayed and shown to have the expected binding to HIV-1 Protease.
The triplets were used as a query input for a search in MDL's ACD-SC (available chemical directory for screening).
All of molecules were actually assayed and appeared to show activity (effect on HIV-1 Protease) at various concentrations (between 10 and 1000 micro-molar). […] Also molecules 34-39 were assayed, with no activity shown, as expected.

Compound | activity (effect on HIV-1 Protease)
O=C1C2C(c3ccccc3)NC(c3ccccc3)C1C(c1ccccc1)OC2c1ccccc1 (centres unmarked) [compound 7] | active
Cc1c(-c2ccccc2)c(=O)n(C)c2c1c(=O)n(-c1ccccc1)c(=O)n2-c1ccccc1 [compound 27] | active
